Measured values: ChEMBL document CHEMBL4145662, “Novel Nonsteroidal Progesterone Receptor (PR) Antagonists with a Phenanthridinone Skeleton” (ACS Med Chem Lett, 2018)

How the values were obtained:
Progesterone receptor [1] = biological target: T1, Progesterone receptor (Homo sapiens, UniProt P06401); assay: Antagonist activity at PR in human T47D cells assessed as inhibition of progesterone-induced alkaline phosphatase activity measured after 24 hrs; assay type: cell-based
T1 sequence (P06401 whole entry): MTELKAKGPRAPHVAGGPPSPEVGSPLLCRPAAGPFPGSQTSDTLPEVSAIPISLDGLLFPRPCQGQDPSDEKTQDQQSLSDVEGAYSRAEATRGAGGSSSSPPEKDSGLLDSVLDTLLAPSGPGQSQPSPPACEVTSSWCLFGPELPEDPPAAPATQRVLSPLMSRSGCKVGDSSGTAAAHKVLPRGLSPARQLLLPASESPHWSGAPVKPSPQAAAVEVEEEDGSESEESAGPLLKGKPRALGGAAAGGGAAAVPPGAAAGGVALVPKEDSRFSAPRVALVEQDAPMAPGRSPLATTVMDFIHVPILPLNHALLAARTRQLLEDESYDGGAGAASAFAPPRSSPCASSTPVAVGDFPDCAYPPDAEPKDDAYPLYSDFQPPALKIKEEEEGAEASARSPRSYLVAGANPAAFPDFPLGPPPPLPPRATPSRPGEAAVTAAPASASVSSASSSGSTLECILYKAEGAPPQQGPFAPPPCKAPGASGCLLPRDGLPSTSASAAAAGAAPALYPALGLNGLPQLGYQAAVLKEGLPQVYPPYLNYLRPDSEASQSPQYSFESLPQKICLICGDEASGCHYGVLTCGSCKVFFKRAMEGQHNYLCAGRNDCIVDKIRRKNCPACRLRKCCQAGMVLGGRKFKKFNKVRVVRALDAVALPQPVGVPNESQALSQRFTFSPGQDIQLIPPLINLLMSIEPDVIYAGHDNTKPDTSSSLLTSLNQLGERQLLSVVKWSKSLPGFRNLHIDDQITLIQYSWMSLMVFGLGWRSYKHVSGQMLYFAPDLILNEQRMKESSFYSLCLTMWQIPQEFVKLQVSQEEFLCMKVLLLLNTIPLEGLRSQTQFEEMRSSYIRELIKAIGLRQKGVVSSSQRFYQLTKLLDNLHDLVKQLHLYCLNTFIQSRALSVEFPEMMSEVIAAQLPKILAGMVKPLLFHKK

Progesterone receptor [2] = biological target: T1, Progesterone receptor; assay: Agonist activity at PR in human T47D cells at 10 uM; assay type: cell-based

Row | Compound | IC50 (Progesterone receptor [1]) [nM] | Activity (Progesterone receptor [2])
1 | O=c1[nH]c2ccc(C(O)(C(F)(F)F)C(F)(F)F)cc2c2ccccc12 | 780 | –
2 | CCCc1cc(C(O)(C(F)(F)F)C(F)(F)F)cc2c1[nH]c(=O)c1ccccc12 | 360 | –
3 | CCCCCCCCCn1c(=O)c2ccccc2c2cc(C(O)(C(F)(F)F)C(F)(F)F)ccc21 | 10000 | –
4 | Cn1c(=O)c2ccccc2c2cc(C(O)(C(F)(F)F)C(F)(F)F)ccc21 | 340 | –
5 | CCCCn1c(=O)c2ccccc2c2c(OC)c(C(O)(C(F)(F)F)C(F)(F)F)ccc21 | 4000 | –
6 | CCCCn1c(=O)c2cccc(OC)c2c2cc(C(O)(C(F)(F)F)C(F)(F)F)ccc21 | 2700 | –
7 | CCCCn1c(=O)c2cc(OC)ccc2c2cc(C(O)(C(F)(F)F)C(F)(F)F)ccc21 | 1100 | –
8 | CCCCn1c(=O)c2ccccc2c2cc(C)ccc21 | 7900 | –
9 | CCCCCCn1c(=O)c2ccccc2c2cc(C(O)(C(F)(F)F)C(F)(F)F)ccc21 | 2500 | –
10 | CCCCn1c(=O)c2ccccc2c2cc(C(O)(C(F)(F)F)C(F)(F)F)c(OC)cc21 | 410 | –
11 | Cn1c(C#N)ccc1-c1ccc2oc(=O)ccc2c1 | 123 | Not Active
12 | CCCCn1c(=O)c2ccccc2c2cc(C(O)(C(F)(F)F)C(F)(F)F)ccc21 | 1200 | –
13 | CC#C[C@]1(O)CC[C@H]2[C@@H]3CCC4=CC(=O)CCC4=C3[C@@H](c3ccc(N(C)C)cc3)C[C@@]21C [MIFEPRISTONE] | – | Not Active
14 | CCCCn1c(=O)c2ccccc2c2cc(C(O)(C(F)(F)F)C(F)(F)F)cc(OC)c21 | 560 | –
15 | CCCCn1c(=O)c2ccc(OC)cc2c2cc(C(O)(C(F)(F)F)C(F)(F)F)ccc21 | 5800 | –
16 | CCc1cc(C(O)(C(F)(F)F)C(F)(F)F)cc2c1[nH]c(=O)c1ccccc12 | 210 | –
17 | O=c1[nH]c2ccc(C(O)(C(F)(F)F)C(F)(F)F)cc2c2cc(F)ccc12 | 1000 | –
18 | O=S(=O)(Nc1ccc(Oc2ccccc2)cc1)c1cccc(C(F)(F)F)c1 | 107 | Not Active
19 | O=c1[nH]c2ccc(C(O)(C(F)(F)F)C(F)(F)F)cc2c2cccc(F)c12 | 730 | –
20 | O=c1[nH]c2ccc(C(O)(C(F)(F)F)C(F)(F)F)cc2c2ccc(F)cc12 | 310 | –
21 | CCCCn1c(=O)c2ccccc2c2cc(CC)ccc21 | 7800 | –
22 | Cc1cc(C(O)(C(F)(F)F)C(F)(F)F)cc2c3ccccc3c(=O)n(C)c12 | 180 | –
23 | CCCCn1c(=O)c2ccccc2c2ccccc21 | 7100 | –
24 | CCCCn1c(=O)c2ccccc2c2cc(CO)ccc21 | 8600 | –
25 | CCCCn1c(=O)c2ccccc2c2cc(C(C)(C)C)ccc21 | 8300 | –
26 | CCCn1c(=O)c2ccccc2c2cc(C(O)(C(F)(F)F)C(F)(F)F)ccc21 | 3800 | –
27 | CCCCn1c(=O)c2c(OC)cccc2c2cc(C(O)(C(F)(F)F)C(F)(F)F)ccc21 | 12000 | –
28 | O=c1[nH]c2c(F)cc(C(O)(C(F)(F)F)C(F)(F)F)cc2c2ccccc12 | 130 | –
29 | COc1cc(C(O)(C(F)(F)F)C(F)(F)F)cc2c1[nH]c(=O)c1ccccc12 | 270 | –
30 | CCn1c(=O)c2ccccc2c2cc(C(O)(C(F)(F)F)C(F)(F)F)ccc21 | 1400 | –
